For experiment [1], the target named is Human recombinant Acetyl-CoA Carboxylase 2 (ACC2) (Homo sapiens, UniProt O00763). Briefly: Assay X: ACC2 inhibition, inorganic phosphate (malachite green). The conditions noted are these: Assay X: 37° C., 1.5 h, 5 min pre-incubation. The experiment is classed as biochemical. As for the experimental part:
(§1) Human recombinant Acetyl-CoA Carboxylase 1 and Acetyl-CoA Carboxylase 2 (ACC1 and ACC2) were assayed by determining the amount of inorganic phosphate (Pi) generated. Pre-incubation of 15 μL enzyme together with 0.75 μL DMSO+/−compound for 5 min was done before the reaction was initiated by the addition of 10 μL substrate. […] After 1.5 h the reaction was stopped by addition of 74 μL of water followed by extensive mixing, split and transfer of 2×40 μL to a read-plate encompassing 30 μL distilled H2O per well (n=2→n=4). Colour reaction was initiated by addition of 30 μL malachite green reagent per well and allowed 15 min before absorbance reading of the plates at 660 nm. The malachite green reagent was prepared by mixing 16.4 mL ammonium molybdate solution (7.5%), 1.64 mL Tween (11%) with 82 mL Malachite Green/H2SO4-solution (0.7 g Malachite Green to 1000 mL of 10% (v/v) H2SO4).
(§2) All compounds were tested in triplicate at 10 different concentrations. Control compound (0, 50 and 100% effect) was included on each plate. […] Curve fitting was done using the following equation: y=(A+((B−A)/(1+((x/C)̂D)))) where A and B represents the curve bottom (% inhibition) and the total amplitude (% inhibition), respectively, whereas C and D are the apparent IC50 and curve slope, respectively.

Experiment [2] deals with Human recombinant Acetyl-CoA Carboxylase 1 (ACC1) (Homo sapiens, UniProt Q13085). The experiment is described as follows: Assay X: ACC1 inhibition, inorganic phosphate (malachite green). The experiment is classed as biochemical. The conditions noted are these: Assay X: 37° C., 1.5 h, 5 min pre-incubation. How it is done:
as §1, §2

This note sets out measurements from patent US20090306133A1, “New Acetyl Coenzyme A Carboxylase (ACC) Inhibitors And Uses In Treatments Of Obesity And Diabetes Mellitus - 087” (ASTRAZENECA AB, priority 2007, published 2009).

SMILES strings stand for the structures.

Sequence of Human recombinant Acetyl-CoA Carboxylase 2 (ACC2) (O00763 whole entry): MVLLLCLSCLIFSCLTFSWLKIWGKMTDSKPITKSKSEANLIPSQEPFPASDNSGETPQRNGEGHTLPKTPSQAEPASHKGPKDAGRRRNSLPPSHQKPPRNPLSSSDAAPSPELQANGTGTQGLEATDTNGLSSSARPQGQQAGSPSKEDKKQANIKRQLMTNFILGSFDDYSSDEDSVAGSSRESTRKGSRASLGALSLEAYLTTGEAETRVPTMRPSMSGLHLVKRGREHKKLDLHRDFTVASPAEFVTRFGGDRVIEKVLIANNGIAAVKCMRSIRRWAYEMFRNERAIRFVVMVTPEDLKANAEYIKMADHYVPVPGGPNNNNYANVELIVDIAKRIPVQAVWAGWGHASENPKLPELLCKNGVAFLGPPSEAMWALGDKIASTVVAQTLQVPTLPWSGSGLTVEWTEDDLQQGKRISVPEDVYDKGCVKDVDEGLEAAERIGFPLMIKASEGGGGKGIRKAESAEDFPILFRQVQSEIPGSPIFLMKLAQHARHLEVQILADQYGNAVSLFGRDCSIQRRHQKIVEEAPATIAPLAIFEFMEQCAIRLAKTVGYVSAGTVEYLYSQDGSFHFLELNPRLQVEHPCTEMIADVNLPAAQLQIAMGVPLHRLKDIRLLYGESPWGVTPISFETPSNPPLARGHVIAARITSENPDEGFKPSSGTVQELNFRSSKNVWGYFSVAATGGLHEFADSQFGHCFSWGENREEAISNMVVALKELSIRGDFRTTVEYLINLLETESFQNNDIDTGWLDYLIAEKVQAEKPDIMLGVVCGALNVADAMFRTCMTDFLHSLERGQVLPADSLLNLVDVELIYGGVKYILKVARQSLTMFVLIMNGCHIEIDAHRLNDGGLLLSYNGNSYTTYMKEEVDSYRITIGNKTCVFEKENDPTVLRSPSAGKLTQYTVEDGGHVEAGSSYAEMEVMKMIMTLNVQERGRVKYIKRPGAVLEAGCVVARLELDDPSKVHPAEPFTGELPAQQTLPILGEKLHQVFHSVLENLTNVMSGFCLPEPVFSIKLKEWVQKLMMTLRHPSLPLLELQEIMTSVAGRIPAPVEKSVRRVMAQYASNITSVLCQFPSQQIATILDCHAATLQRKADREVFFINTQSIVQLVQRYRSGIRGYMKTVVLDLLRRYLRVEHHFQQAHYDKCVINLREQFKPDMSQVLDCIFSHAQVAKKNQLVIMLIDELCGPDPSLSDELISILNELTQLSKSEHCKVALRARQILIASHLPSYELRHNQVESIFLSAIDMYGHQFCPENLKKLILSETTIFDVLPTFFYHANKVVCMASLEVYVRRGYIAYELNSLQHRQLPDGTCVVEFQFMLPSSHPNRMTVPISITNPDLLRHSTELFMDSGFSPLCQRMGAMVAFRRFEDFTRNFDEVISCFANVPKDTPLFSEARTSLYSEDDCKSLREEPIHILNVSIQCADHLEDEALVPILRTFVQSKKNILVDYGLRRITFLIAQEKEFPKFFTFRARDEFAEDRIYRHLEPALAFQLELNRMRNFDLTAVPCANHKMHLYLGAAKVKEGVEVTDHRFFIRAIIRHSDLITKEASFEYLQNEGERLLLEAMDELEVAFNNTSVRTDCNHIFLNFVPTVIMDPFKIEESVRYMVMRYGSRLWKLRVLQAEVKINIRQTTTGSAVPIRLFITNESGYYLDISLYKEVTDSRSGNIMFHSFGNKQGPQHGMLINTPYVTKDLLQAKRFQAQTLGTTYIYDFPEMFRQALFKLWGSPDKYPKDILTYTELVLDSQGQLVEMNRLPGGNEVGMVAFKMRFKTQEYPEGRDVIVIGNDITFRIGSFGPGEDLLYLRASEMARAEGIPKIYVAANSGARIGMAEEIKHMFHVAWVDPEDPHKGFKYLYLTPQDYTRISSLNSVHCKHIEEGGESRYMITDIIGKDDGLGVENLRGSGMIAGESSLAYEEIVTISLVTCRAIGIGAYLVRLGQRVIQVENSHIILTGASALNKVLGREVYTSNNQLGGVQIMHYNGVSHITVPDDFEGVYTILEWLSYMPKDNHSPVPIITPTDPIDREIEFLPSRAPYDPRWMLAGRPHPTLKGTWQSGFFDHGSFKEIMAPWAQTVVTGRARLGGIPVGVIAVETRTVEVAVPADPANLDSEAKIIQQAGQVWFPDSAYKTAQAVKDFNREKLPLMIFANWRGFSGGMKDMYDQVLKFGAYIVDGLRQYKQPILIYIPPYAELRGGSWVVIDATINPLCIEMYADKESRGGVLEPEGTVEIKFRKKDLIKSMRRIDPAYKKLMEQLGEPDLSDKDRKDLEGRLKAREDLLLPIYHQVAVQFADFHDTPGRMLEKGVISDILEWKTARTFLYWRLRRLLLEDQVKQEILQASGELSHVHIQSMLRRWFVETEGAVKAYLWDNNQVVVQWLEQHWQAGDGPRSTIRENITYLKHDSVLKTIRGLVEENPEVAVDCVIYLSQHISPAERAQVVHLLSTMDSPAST

On to `CC(C)(C)OC(=O)NC[C@H]1CC[C@H](CNC(=O)c2cc(-c3ccc(N4CCC(C(N)=O)CC4)nc3)nc3ccccc23)CC1` [Example 153, tert-Butyl[(trans-4-{[({2-[6-(4-carbamoylpiperidin-1-yl)pyridin-3-yl]-quinolin-4-yl}carbonyl)amino]-methyl}cyclohexyl)methyl]carbamate], for which the figures for the IC50 in experiment [1] and in experiment [2] were 130 nM and 230 nM, respectively.
Consider `CC(C)(C)OC(=O)NC[C@H]1CC[C@H](CNC(=O)c2cc(-c3ccc(N4CCNCC4)nc3)nc3ccccc23)CC1` [Example 154, tert-Butyl({trans-4-[({[2-(6-piperazin-1-ylpyridin-3-yl)-quinolin-4-yl]-carbonyl}amino)methyl]cyclohexyl}methyl)carbamate], for which the IC50 in experiment [1] stood at 50 nM; in experiment [2], 190 nM.
In the same order, the values of `CC(C)(C)OC(=O)NC[C@H]1CC[C@H](CNC(=O)c2cc(-c3ccc(NCCOCCO)nc3)nc3ccccc23)CC1` [Example 155, tert-Butyl({trans-4-[({[2-(6-{[2-(2-hydroxyethoxy)ethyl]amino}pyridin-3-yl)quinolin-4-yl]-carbonyl}amino)-methyl]cyclohexyl}methyl)carbamate] are 410 nM and 1100 nM.
Regarding `COCCNc1ccc(-c2cc(C(=O)NC[C@H]3CC[C@H](CNC(=O)OC(C)(C)C)CC3)c3ccccc3n2)cn1` [Example 156, tert-Butyl{[trans-4-({[(2-{6-[(2-methoxyethyl)amino]pyridin-3-yl}quinolin-4-yl)carbonyl]amino}methyl)cyclohexyl]methyl}carbamate], the values for the half-inhibitory concentration (IC50) in experiment [1] and in experiment [2] were 350 nM and 810 nM, respectively.
In the same order, the values of `Cc1cnc(CNc2ccc(-c3cc(C(=O)NC[C@H]4CC[C@H](CNC(=O)OC(C)(C)C)CC4)c4ccccc4n3)cn2)cn1` [Example 159, tert-Butyl({trans-4-[({[2-(6-{[(5-methylpyrazin-2-yl)methyl]amino}pyridin-3-yl)quinolin-4-yl]carbonyl}amino)methyl]cyclohexyl}methyl)carbamate] are 280 nM and 500 nM.
As for `CN(C)[C@H]1CCN(c2ccc(-c3cc(C(=O)NC[C@H]4CC[C@H](CNC(=O)OC(C)(C)C)CC4)c4ccccc4n3)cn2)C1` [Example 160, tert-Butyl{[trans-4-({[(2-{6-[(3S)-3-(dimethylamino)-pyrrolidin-1-yl]pyridin-3-yl}quinolin-4-yl)-carbonyl]amino}methyl)cyclohexyl]methyl}carbamate], the values for the IC50 in experiment [1] and in experiment [2] were 70 nM and 220 nM, respectively.
In the same order, the values of `CC(C)(C)OC(=O)NC[C@H]1CC[C@H](CNC(=O)c2cc(-c3ccc(N4CCC(CO)CC4)nc3)nc3ccccc23)CC1` [Example 161, tert-Butyl{[trans-4-({[(2-{6-[4-(hydroxymethyl)piperidin-1-yl]pyridin-3-yl}-quinolin-4-yl)-carbonyl]amino}methyl)cyclohexyl]methyl}carbamate] are 160 nM and 300 nM.
In the same order, the values of `CC(C)(C)OC(=O)NC[C@H]1CC[C@H](CNC(=O)c2cc(-c3ccc(N4CCC[C@H]4C(N)=O)nc3)nc3ccccc23)CC1` [Example 163, tert-Butyl{[trans-4-({[(2-{6-[(2S)-2-carbamoylpyrrolidin-1-yl]pyridin-3-yl}-quinolin-4-yl)-carbonyl]amino}methyl)cyclohexyl]methyl}-carbamate] are 370 nM and 1100 nM.
In the same order, the values of `CC(C)(C)OC(=O)NC[C@H]1CC[C@H](CNC(=O)c2cc(-c3ccc(NC(CO)CO)nc3)nc3ccccc23)CC1` [Example 164, tert-Butyl({trans-4-[({[2-(6-{[2-hydroxy-1-(hydroxymethyl)-ethyl]amino}pyridin-3-yl)quinolin-4-yl]-carbonyl}amino)methyl]cyclohexyl}methyl)-carbamate] are 330 nM and 1260 nM.
Consider `CC(C)(C)OC(=O)NC[C@H]1CC[C@H](CNC(=O)c2cc(-c3ccc(N4CCNC(=O)C4)nc3)nc3ccccc23)CC1` [Example 165, tert-Butyl[(trans-4-{[({2-[6-(3-oxopiperazin-1-yl)-pyridin-3-yl]quinolin-4-yl}carbonyl)amino]-methyl}cyclohexyl)methyl]carbamate], for which the concentration for half-maximal inhibition (IC50) amounted to 160 nM in experiment [1] and 540 nM in experiment [2].
In the same order, the values of `Cn1cc(CNc2ccc(-c3cc(C(=O)NC[C@H]4CC[C@H](CNC(=O)OC(C)(C)C)CC4)c4ccccc4n3)cn2)cn1` [Example 166, tert-Butyl({trans-4-[({[2-(6-{[(1-methyl-1H-pyrazol-4-yl)methyl]amino}-pyridin-3-yl)quinolin-4-yl]carbonyl}amino)-methyl]cyclohexyl}methyl)carbamate] are 410 nM and 820 nM.
In the same order, the values of `CC(C)(C)OC(=O)NC[C@H]1CC[C@H](CNC(=O)c2cc(-c3ccc(NCCC(N)=O)nc3)nc3ccccc23)CC1` [Example 167, tert-Butyl{[trans-4-({[(2-{6-[(3-amino-3-oxopropyl)amino]pyridin-3-yl}quinolin-4-yl)-carbonyl]amino}methyl)cyclohexyl]methyl}carbamate] are 1580 nM and 4400 nM.
In the case of `CC(C)(C)OC(=O)NC[C@H]1CC[C@H](CNC(=O)c2cc(-c3ccc(N4CC(O)C4)nc3)nc3ccccc23)CC1` [Example 168, tert-Butyl[(trans-4-{[({2-[6-(3-hydroxyazetidin-1-yl)-pyridin-3-yl]quinolin-4-yl}carbonyl)amino]-methyl}cyclohexyl)methyl]carbamate], the results for the IC50 in experiment [1] and in experiment [2] were 230 nM and 680 nM, respectively.
For the compound `CC[C@H](Nc1ccc(-c2cc(C(=O)NC[C@H]3CC[C@H](CNC(=O)OC(C)(C)C)CC3)c3ccccc3n2)cn1)C(N)=O` [Example 169, tert-Butyl({trans-4-[({[2-(6-{[(1S)-1-carbamoylpropyl]amino}pyridin-3-yl)-quinolin-4-yl]-carbonyl}amino)methyl]cyclohexyl}methyl)carbamate], the IC50 in experiment [1] was 650 nM; in experiment [2] it was 1370 nM.
In the same order, the values of `Cc1nc(CNc2ccc(-c3cc(C(=O)NC[C@H]4CC[C@H](CNC(=O)OC(C)(C)C)CC4)c4ccccc4n3)cn2)no1` [Example 170, tert-Butyl({trans-4-[({[2-(6-{[(5-methyl-1,2,4-oxadiazol-3-yl)methyl]amino}-pyridin-3-yl)quinolin-4-yl]carbonyl}amino)-methyl]cyclohexyl}-methyl)carbamate] are 480 nM and 1200 nM.
In the same order, the values of `CC(C)(C)OC(=O)NC[C@H]1CC[C@H](CNC(=O)c2cc(-c3ccc(N4CNC(=O)C4)nc3)nc3ccccc23)CC1` [Example 172, tert-Butyl[(trans-4-{[({2-[6-(4-oxoimidazolidin-1-yl)-pyridin-3-yl]quinolin-4-yl}carbonyl)amino]-methyl}cyclohexyl)-methyl]carbamate] are 160 nM and 3500 nM.
In the same order, the values of `CC(C)(C)OC(=O)NC[C@H]1CC[C@H](CNC(=O)c2cc(-c3ccc(OCCO)nc3)nc3ccccc23)CC1` [Example 174, tert-Butyl[(trans-4-{[({2-[6-(2-hydroxyethoxy)-pyridin-3-yl]-quinolin-4-yl}-carbonyl)amino]-methyl}cyclohexyl)methyl]carbamate] are 340 nM and 1000 nM.
Consider `CC(C)(C)OC(=O)NC[C@H]1CC[C@H](CNC(=O)c2cc(-c3ccc(OC4CCOCC4)nc3)nc3ccccc23)CC1` [Example 175, tert-Butyl[(trans-4-{[({2-[6-(tetrahydro-2H-pyran-4-yloxy)-pyridin-3-yl]-quinolin-4-yl}-carbonyl)amino]-methyl}cyclohexyl)methyl]carbamate], for which the IC50 in experiment [1] was found to be 500 nM; in experiment [2], 7300 nM.
In the same order, the values of `CC(C)(C)OC(=O)NC[C@H]1CC[C@H](CNC(=O)c2cc(-c3ccc(OCN4CCCC4=O)nc3)nc3ccccc23)CC1` [Example 177, tert-Butyl{[trans-4-({[(2-{6-[(2-oxopyrrolidin-1-yl)methoxy]pyridin-3-yl}quinolin-4-yl)carbonyl]amino}-methyl)cyclohexyl]-methyl}carbamate] are 1710 nM and 4310 nM.
Consider `CC(C)(C)OC(=O)NC[C@H]1CC[C@H](CNC(=O)c2cc(-c3ccc(OCC(N)=O)nc3)nc3ccccc23)CC1` [Example 178, tert-Butyl[(trans-4-{[({2-[6-(2-amino-2-oxoethoxy)pyridin-3-yl]quinolin-4-yl}carbonyl)amino]-methyl}cyclohexyl)methyl]carbamate], for which the figures for the IC50 in experiment [1] and in experiment [2] were 330 nM and 1550 nM, respectively.
In the same order, the values of `CN1CCN(CCOc2ccc(-c3cc(C(=O)NC[C@H]4CC[C@H](CNC(=O)OC(C)(C)C)CC4)c4ccccc4n3)cn2)CC1` [Example 179, tert-Butyl{[trans-4-({[(2-{6-[2-(4-methylpiperazin-1-yl)ethoxy]pyridin-3-yl}quinolin-4-yl)carbonyl]amino}-methyl)cyclohexyl]-methyl}carbamate] are 550 nM and 1800 nM.
